Source: ChEMBL document CHEMBL5331080, “Discovery of tetrahydrofuranyl spirooxindole-based SMYD3 inhibitors against gastric cancer via inducing lethal autophagy” (Eur J Med Chem, 2023)
Active and inactive are the calls of the source. No cut-off for these calls is given here.

Key:
[1] = target: T1, Histone-lysine N-methyltransferase SMYD3 (Homo sapiens) (UniProt Q9H7B4); assay: (§1) Inhibition of GST-tagged SMYD3 (unknown origin) using biotinylated MAP3K2 peptide as substrate incubated for 1 hrs by TR-FRET based assay
T1 sequence (whole entry): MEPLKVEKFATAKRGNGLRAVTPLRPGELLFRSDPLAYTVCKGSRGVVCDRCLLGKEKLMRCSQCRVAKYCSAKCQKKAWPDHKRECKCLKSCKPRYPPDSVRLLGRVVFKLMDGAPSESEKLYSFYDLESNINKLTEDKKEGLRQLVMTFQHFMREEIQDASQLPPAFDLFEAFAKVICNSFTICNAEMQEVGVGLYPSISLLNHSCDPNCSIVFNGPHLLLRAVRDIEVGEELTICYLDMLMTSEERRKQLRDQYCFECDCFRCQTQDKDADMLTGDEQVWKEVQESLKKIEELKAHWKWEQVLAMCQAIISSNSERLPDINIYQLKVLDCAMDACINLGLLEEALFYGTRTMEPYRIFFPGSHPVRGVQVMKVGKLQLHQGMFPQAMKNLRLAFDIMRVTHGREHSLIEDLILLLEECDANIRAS

BGC-823 [2] = assay: Antiproliferative activity against human BGC-823 cells assessed as inhibition of cell proliferation by MTT assay; assay type: functional, cell-based
HGC-27 = assay: Antiproliferative activity against human HGC-27 cells assessed as inhibition of cell proliferation by MTT assay; assay type: functional, cell-based
BGC-823 [3] = assay: Antitumor activity against human BGC-823 cells xenografted in ip dosed Balb/c nude mouse assessed as suppression of tumor weight; assay type: functional, organism-based; settings: dose 15-30 mg/kg
[4] = target: N-lysine methyltransferase SMYD2 (Homo sapiens) (UniProt Q9NRG4); assay: Inhibition of SMYD2 (unknown origin)
BGC-823 [5] = assay: Antitumor activity against human BGC-823 cells xenografted in ip dosed Balb/c nude mouse assessed as suppression of tumor growth; assay type: functional, organism-based; settings: dose 15-30 mg/kg
[6] = Toxicity in Balb/c nude mouse xenografted with human BGC-823 cells assessed as change in main organs morphology at 15 to 30 mg/kg, ip by H&E staining based analysis; assay type: organism-based; settings: in vivo, dose 15-30 mg/kg
[7] = target: T2, Histone-lysine N-methyltransferase SMYD3 (Homo sapiens, UniProt Q9H7B4); assay: as §1
T2 sequence (Q9H7B4 whole entry): T1 sequence (whole entry)

BGC-823 [8] = assay: Inhibition of autophagic flux in human BGC-823 cells transfected with Akt1 siRNA assessed as LC3 cleavage incubated for 24 hrs by Western blot analysis; assay type: functional, cell-based
[9] = target: T1, Histone-lysine N-methyltransferase SMYD3 (Homo sapiens); assay: Inhibition of SMYD3-induced Akt1 lysine methylation in human BGC-823 cells at 1 uM by Western blot analysis; assay type: cell-based
BGC-823 [10] = assay: Induction of autophagy in human BGC-823 cells transfected with GFP-LC3 assessed as increase in GFP-LC3 fluorescent puncta in the presence of 3-MA by DAPI staining based immunofluorescence analysis; assay type: functional, cell-based
BGC-823 [11] = assay: Inhibition of autophagic flux in human BGC-823 cells assessed as p62 accumulation incubated for 24 hrs in the presence of 3-MA by Western blot analysis; assay type: functional, cell-based
[12] = target: T1, Histone-lysine N-methyltransferase SMYD3 (Homo sapiens); assay: Inhibition of SMYD3 in human BGC-823 cells transfected with SMYD3 siRNA assessed as suppression of H3K4 methylation level by Western blot analysis; assay type: cell-based
BGC-823 [13] = assay: Antitumor activity against human BGC-823 cells xenografted in ip dosed Balb/c nude mouse assessed as suppression of tumor volume; assay type: functional, organism-based; settings: dose 15-30 mg/kg
BGC-823 [14] = assay: Inhibition of autophagic flux in human BGC-823 cells assessed as inhibition of autophagosome-lysosome fusion by measuring suppression of GFP-LC3 and LAMP1 intracellular co-localization incubated for 24 hrs by DAPI staining based immunofluorescence analysis; assay type: functional, cell-based
BGC-823 [15] = assay: Effect on total H3 methylation level in human BGC-823 cells at 1 uM by Western blot analysis; assay type: functional, cell-based
BGC-823 [16] = assay: Induction of autophagy in human BGC-823 cells transfected with GFP-LC3 assessed as increase in GFP-LC3 fluorescent puncta by DAPI staining based immunofluorescence analysis; assay type: functional, cell-based
BGC-823 [17] = assay: Inhibition of autophagic flux in human BGC-823 cells assessed as LC3-II accumulation incubated for 24 hrs in the presence of 3-MA by Western blot analysis; assay type: functional, cell-based
BGC-823 [18] = assay: Effect on total H3 expression level in human BGC-823 cells at 1 uM by Western blot analysis; assay type: functional, cell-based
Mus musculus [19] = assay: Effect on total SMYD3 protein level in Balb/c nude mouse xenografted with human BGC-823 cells at 15 to 30 mg/kg, ip by immunohistochemistry analysis; assay type: functional, organism-based; settings: dose 15-30 mg/kg
[20] = target: Histone-lysine N-methyltransferase, H3 lysine-79 specific (Homo sapiens) (UniProt Q8TEK3); assay: Inhibition of DOT1L (unknown origin)
BGC-823 [21] = assay: Inhibition of autophagic flux in human BGC-823 cells transfected with Akt1 siRNA assessed as increase in mTOR incubated for 24 hrs by Western blot analysis; assay type: functional, cell-based
BGC-823 [22] = assay: Antiproliferative activity against human BGC-823 cells assessed as reduction in cell viability incubated for 48 hrs in the presence of 3-MA by MTT assay; assay type: functional, cell-based
[23] = target: T1, Histone-lysine N-methyltransferase SMYD3 (Homo sapiens); assay: Inhibition of SMYD3 in human BGC-823 cells assessed as translocation of SMYD3 from nucleus to cytoplasm by DAPI staining based analysis; assay type: cell-based
[24] = Toxicity in Balb/c nude mouse xenografted with human BGC-823 cells assessed as change in body weight at 15 to 30 mg/kg, ip; assay type: organism-based; settings: in vivo, dose 15-30 mg/kg
Mus musculus [25] = assay: Effect on total Akt protein level in Balb/c nude mouse xenografted with human BGC-823 cells at 15 to 30 mg/kg, ip by immunohistochemistry analysis; assay type: functional, organism-based; settings: dose 15-30 mg/kg
[26] = target: Histone-lysine N-methyltransferase EZH2 (Homo sapiens) (UniProt Q15910); assay: Inhibition of EZH2 (unknown origin)
[27] = target: T1, Histone-lysine N-methyltransferase SMYD3 (Homo sapiens); assay: Inhibition of SMYD3 in human BGC-823 cells assessed as suppression of H3K4 methylation level at 1 uM by Western blot analysis; assay type: cell-based
BGC-823 [28] = assay: Induction of autophagy in human BGC-823 cells assessed as autophagic vacuoles by transmission electron microscopic analysis; assay type: functional, cell-based
BGC-823 [29] = assay: Antiproliferative activity against human BGC-823 cells xenografted in Balb/c nude mouse assessed as induction of autophagy by measuring increase in p62 staining at 15 to 30 mg/kg, ip by immunohistochemistry analysis; assay type: functional, organism-based; settings: dose 15-30 mg/kg
BGC-823 [30] = assay: Inhibition of autophagic flux in human BGC-823 cells transfected with Akt1 siRNA assessed as p62 accumulation incubated for 24 hrs by Western blot analysis; assay type: functional, cell-based
[31] = target: T3, Histone-lysine N-methyltransferase EHMT2 (Homo sapiens) (UniProt Q96KQ7); assay: Inhibition of G9a (unknown origin)
T3 sequence (whole entry): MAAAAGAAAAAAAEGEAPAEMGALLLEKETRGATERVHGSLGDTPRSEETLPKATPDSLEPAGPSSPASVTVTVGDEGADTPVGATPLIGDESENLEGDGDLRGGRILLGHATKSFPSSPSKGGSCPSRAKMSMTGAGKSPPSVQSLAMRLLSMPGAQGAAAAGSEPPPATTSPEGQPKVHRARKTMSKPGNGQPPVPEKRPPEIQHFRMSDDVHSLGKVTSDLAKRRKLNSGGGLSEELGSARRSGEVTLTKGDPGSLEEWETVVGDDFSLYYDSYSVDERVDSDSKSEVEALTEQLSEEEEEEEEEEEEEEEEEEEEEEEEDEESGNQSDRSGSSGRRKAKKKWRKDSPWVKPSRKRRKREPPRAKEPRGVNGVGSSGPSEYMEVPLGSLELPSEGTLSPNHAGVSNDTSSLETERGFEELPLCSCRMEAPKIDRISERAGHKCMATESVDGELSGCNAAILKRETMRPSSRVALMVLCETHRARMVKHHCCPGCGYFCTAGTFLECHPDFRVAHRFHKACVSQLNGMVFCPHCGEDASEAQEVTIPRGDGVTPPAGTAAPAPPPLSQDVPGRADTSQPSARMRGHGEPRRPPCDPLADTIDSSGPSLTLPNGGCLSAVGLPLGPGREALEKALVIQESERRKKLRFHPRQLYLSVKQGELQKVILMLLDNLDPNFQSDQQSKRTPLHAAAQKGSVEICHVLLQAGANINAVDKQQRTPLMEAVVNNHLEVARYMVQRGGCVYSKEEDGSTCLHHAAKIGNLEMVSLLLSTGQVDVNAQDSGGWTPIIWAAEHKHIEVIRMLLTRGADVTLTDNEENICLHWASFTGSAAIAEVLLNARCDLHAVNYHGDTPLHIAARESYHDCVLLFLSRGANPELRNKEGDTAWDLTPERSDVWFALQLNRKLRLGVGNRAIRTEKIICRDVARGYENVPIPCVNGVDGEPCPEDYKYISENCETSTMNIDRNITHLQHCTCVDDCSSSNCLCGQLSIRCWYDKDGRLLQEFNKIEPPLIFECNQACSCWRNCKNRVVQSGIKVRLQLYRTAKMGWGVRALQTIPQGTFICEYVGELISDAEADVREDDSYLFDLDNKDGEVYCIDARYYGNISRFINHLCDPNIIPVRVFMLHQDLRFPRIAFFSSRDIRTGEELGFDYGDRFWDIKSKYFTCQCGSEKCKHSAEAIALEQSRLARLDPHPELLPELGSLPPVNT

BGC-823 [32] = assay: Antiproliferative activity against human BGC-823 cells xenografted in Balb/c nude mouse assessed as induction of autophagy by measuring increase in LC3-II staining at 15 to 30 mg/kg, ip by immunohistochemistry analysis; assay type: functional, organism-based; settings: dose 15-30 mg/kg
BGC-823 [33] = assay: Antiproliferative activity against human BGC-823 cells transfected with […] siRNA assessed as reduction in cell viability incubated for 48 hrs by MTT assay; assay type: functional, cell-based

Histone-lysine N-methyltransferase EZH2 (Homo sapiens), sequence (Q15910 whole entry, looked up): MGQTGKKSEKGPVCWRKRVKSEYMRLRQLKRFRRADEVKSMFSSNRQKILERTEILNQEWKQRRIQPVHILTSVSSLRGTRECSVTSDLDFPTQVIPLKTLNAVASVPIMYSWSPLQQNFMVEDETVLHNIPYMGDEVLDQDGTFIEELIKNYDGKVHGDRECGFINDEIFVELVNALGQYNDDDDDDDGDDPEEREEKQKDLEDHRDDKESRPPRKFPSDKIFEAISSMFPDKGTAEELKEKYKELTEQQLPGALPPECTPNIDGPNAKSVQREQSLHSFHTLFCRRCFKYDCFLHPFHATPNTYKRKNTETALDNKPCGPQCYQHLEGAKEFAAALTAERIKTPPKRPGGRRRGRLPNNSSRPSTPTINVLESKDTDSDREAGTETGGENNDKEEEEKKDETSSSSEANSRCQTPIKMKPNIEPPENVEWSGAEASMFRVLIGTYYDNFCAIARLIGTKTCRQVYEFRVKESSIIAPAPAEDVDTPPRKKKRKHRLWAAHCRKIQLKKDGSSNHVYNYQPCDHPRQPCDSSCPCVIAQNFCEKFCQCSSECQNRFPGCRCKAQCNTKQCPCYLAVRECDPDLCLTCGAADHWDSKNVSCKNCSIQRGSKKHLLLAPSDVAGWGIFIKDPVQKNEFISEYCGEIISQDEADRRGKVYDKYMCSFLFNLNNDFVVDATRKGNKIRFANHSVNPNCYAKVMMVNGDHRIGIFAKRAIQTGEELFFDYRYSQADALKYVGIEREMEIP
N-lysine methyltransferase SMYD2 (Homo sapiens), sequence (Q9NRG4 whole entry): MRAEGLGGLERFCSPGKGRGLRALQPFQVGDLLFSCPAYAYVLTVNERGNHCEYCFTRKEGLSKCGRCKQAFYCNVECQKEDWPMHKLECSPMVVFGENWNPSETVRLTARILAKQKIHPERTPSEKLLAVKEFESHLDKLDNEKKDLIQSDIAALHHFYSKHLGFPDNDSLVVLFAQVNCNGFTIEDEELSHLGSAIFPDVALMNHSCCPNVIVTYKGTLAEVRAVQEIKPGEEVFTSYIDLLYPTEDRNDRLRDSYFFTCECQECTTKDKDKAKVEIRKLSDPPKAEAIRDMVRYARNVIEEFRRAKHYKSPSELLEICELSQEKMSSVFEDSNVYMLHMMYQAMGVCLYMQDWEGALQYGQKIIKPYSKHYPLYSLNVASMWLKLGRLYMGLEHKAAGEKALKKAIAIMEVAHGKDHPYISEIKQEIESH
Histone-lysine N-methyltransferase, H3 lysine-79 specific (Homo sapiens), sequence (Q8TEK3 whole entry, looked up): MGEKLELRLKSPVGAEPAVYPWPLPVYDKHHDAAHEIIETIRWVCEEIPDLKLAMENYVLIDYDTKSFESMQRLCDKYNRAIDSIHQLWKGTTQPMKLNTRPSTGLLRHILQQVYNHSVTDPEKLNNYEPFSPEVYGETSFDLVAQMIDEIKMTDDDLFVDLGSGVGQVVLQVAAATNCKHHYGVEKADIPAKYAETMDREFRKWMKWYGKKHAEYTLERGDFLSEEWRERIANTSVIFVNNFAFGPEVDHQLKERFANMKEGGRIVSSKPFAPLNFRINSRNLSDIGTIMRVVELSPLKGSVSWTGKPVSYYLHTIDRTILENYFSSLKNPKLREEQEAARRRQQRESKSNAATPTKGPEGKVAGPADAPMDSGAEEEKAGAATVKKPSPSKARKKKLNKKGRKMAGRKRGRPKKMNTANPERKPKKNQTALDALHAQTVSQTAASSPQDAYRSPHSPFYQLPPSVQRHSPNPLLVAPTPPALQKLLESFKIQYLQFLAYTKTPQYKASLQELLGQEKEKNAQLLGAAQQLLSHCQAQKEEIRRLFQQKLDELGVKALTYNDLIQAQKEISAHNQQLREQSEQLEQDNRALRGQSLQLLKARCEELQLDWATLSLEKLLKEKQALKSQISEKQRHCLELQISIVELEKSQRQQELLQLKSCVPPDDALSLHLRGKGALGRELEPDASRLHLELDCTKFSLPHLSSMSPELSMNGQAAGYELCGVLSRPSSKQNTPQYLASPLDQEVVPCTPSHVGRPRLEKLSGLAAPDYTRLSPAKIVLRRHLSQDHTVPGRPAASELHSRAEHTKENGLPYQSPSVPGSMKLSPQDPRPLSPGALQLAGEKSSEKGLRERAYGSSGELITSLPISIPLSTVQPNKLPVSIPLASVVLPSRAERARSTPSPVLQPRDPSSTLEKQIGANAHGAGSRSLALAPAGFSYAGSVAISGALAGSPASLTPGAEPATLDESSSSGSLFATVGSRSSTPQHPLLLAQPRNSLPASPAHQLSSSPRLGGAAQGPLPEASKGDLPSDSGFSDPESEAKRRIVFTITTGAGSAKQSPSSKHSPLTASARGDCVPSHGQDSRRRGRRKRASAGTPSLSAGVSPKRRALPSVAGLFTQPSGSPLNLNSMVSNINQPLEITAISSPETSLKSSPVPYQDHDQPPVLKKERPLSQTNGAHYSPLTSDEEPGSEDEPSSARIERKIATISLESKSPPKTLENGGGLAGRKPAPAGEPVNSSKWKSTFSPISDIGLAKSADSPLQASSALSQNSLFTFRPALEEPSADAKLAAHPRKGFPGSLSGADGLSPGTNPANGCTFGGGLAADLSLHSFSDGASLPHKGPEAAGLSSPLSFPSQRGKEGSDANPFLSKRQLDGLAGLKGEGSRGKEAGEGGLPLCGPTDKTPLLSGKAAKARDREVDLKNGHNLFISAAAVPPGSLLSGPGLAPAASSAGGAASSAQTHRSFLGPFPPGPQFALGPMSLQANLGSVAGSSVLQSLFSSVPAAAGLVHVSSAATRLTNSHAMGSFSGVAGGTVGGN

COc1ccc([C@@H]2[C@H]3CN(Cc4ccccc4)C(=O)[C@@]3(O)O[C@]23C(=O)Nc2ccccc23)cc1OC
inhibition [1]: Active | Activity (BGC-823 [2]): Active | Activity (HGC-27): Active

O=C1N(Cc2ccccc2)C[C@@H]2[C@@H](c3ccc(Br)cc3)[C@]3(O[C@]12O)C(=O)Nc1ccccc13
Activity (BGC-823 [3]): Dose-Dependent Effect | inhibition [4]: inactive | Activity (BGC-823 [5]): Dose-Dependent Effect | Activity [6]: Non-Toxic | IC50 [7]: 810 nM | inhibition (BGC-823 [8]): Active | inhibition [9]: Active | IC50 (BGC-823 [2]): 750 nM | Activity (BGC-823 [10]): inactive | inhibition (BGC-823 [11]): Active | inhibition [12]: Active | Activity (BGC-823 [13]): Dose-Dependent Effect | inhibition (BGC-823 [14]): Active | Activity (BGC-823 [15]): inactive | Activity (BGC-823 [16]): Active | inhibition (BGC-823 [17]): Active | Activity (BGC-823 [18]): inactive | Activity (Mus musculus [19]): inactive | inhibition [20]: inactive | inhibition (BGC-823 [21]): Active | Activity (HGC-27): Active | Activity (BGC-823 [22]): inactive | inhibition [23]: Active | Activity [24]: Non-Toxic | Activity (Mus musculus [25]): inactive | inhibition [26]: inactive | inhibition [27]: Active | Activity (BGC-823 [28]): Active | Activity (BGC-823 [29]): Active | inhibition (BGC-823 [30]): Active | inhibition [31]: inactive | Activity (BGC-823 [32]): Active | Activity (BGC-823 [33]): inactive

O=C1N(Cc2ccccc2)C[C@@H]2[C@@H](c3ccc(Cl)cc3)[C@]3(O[C@]12O)C(=O)Nc1ccccc13
inhibition [1]: Active | Activity (BGC-823 [2]): Active | Activity (HGC-27): Active

O=C1N(Cc2ccccc2)C[C@@H]2[C@@H](c3ccc(Cl)cc3Cl)[C@]3(O[C@]12O)C(=O)Nc1ccccc13
inhibition [1]: Active | Activity (BGC-823 [2]): Active | Activity (HGC-27): Active

Cc1ccc([C@@H]2[C@H]3CN(Cc4ccccc4)C(=O)[C@@]3(O)O[C@]23C(=O)Nc2ccccc23)cc1
inhibition [1]: Active | Activity (BGC-823 [2]): Active | Activity (HGC-27): Active

O=C1N(Cc2ccccc2)C[C@@H]2[C@@H](c3cccs3)[C@]3(O[C@]12O)C(=O)Nc1ccccc13
inhibition [1]: Active | Activity (BGC-823 [2]): Active | Activity (HGC-27): Active

O=C1N(Cc2ccccc2)C[C@@H]2[C@@H](c3ccc4ccccc4c3)[C@]3(O[C@]12O)C(=O)Nc1ccccc13
inhibition [1]: Active | Activity (BGC-823 [2]): Active | Activity (HGC-27): Active
